Experimental data published in PubChem BioAssay AID850 (SRMLSC, 2007).
The source made the active and inactive calls. No rule for the calls is given here.

Tests used:
[1] = yeast lifespan-shortening chemical project counter-assay, dose-response inhibition of growth under permissive conditions (AID 850); settings: Saccharomyces cerevisiae growth inhibition, permissive control, measured here: maximum growth inhibition, stronger effect = higher value;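 also: growth read as optical density after one day of incubation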
[2] = tested on: Saccharomyces cerevisiae growth inhibition, permissive control; experiment: as above

SMILES | inhibition ([1]; at 50 µM) | IC50 [2] | other results
CCC(=O)c1c(O)n(C2CCCCCC2)c(=O)[nH]c1=O | 91% | 29 µM | –
O=[N+]([O-])c1ccc(CN2CCCCCC2)s1 | – | > 100 µM (inactive) | inhibition ([1]; at 25 µM): 28.2%
NC(N)=N/N=C/c1ccc(OCc2ccc(Cl)cc2Cl)cc1 | 101% | 28.1 µM | –
O=C(OCn1ncc(Cl)c(Cl)c1=O)c1ccc(F)cc1 | 23% | > 100 µM (inactive) | –
Oc1ccc(/C=N/N=C(c2ccccc2)c2ccccc2)c(O)c1O | 79.8% | 30.1 µM | –
Nc1c(Cl)ncnc1N/N=C/c1ccccn1 | 99.2% | 8.45 µM | –
Cc1cc(C)c2c(N=NN3CCOCC3)[nH]nc2n1 | 5.41% | > 100 µM (inactive) | –
O=c1cc(C(F)(F)F)[nH]c2c(C(F)(F)F)cccc12 | 97.5% | 11.2 µM | –
COc1ccc(-c2nnc3c4ccccc4c(C)nn23)cc1 | – | > 100 µM (inactive) | inhibition ([1]; at 1.563 µM): 11.6%
CCS(=O)(=O)n1nc(-c2ccc(Cl)cc2)nc1SCc1ccccc1 | 15% | > 100 µM (inactive) | –
CC(=O)NC(=S)c1c(N)n(Cc2ccccc2)c(=O)n(C)c1=O | – | > 100 µM (inactive) | inhibition ([1]; at 3.125 µM): 7.99%
c1ccc(-c2nc(-n3ccnc3)nc(-n3ccnc3)n2)cc1 | – | > 100 µM (inactive) | inhibition ([1]; at 1.563 µM): 17.9%
Nc1nc2sc3c(c2c(=O)s1)CCCC3 | – | > 100 µM (inactive) | inhibition ([1]; at 0.195 µM): 24.4%
CC(Nc1ccc(Br)cn1)c1cc(Cl)ccc1O (stereo not given) | – | > 100 µM (inactive) | inhibition ([1]; at 0.781 µM): 12.8%
Cc1ccc(Oc2nc(CN3CCOCC3)nc3sc4c(c23)CCC(C)C4)cc1C (stereo not given) | 93.4% | 23.5 µM | –
O=[N+]([O-])c1ccc(Sc2nc3ccccc3o2)c([N+](=O)[O-])c1 | 48.3% | 50.1 µM | –
Oc1ccc(CN2CCCCC2)c2cccnc12 | 37.4% | 51.8 µM | –
c1ccc(-c2csc3nnc(SCc4ccc5c(c4)OCO5)n23)cc1 | – | > 100 µM (inactive) | inhibition ([1]; at 0.781 µM): 9.45%
CCOC(=O)c1sc(=S)n(-c2cc(F)ccc2F)c1N | – | > 100 µM (inactive) | inhibition ([1]; at 25 µM): 29.2%
O=C(N/N=C/c1cc2c3c(c1O)CCCN3CCC2)c1ccccc1O | 49.5% | 48.1 µM | –
CCc1cccc(C)c1NC(=S)NCc1ccc2[nH]c(C)cc2c1 | 8.77% | > 100 µM (inactive) | –
COc1ccc(OCCNC2CCCC2)cc1 | – | > 100 µM (inactive) | inhibition ([1]; at 0.195 µM): 7.53%

SMILES | inhibition ([1]; at 50 µM) | IC50 [2] | other results
O=C(Oc1ccc(Cl)c2cccnc12)c1ccco1 | 100% | 12.4 µM | –
c1ccc(-c2nnc(-c3ccccn3)nc2NC2CCCCC2)cc1 | 99.6% | 12.6 µM | –
COc1cccc(C(=O)O/N=C(\N)Cc2ccc(Cl)cc2)c1 | – | 6.32 µM | inhibition ([1]; at 12.5 µM): 97.5%
CC1(CCc2ccccc2)NC(=S)N(c2ccccc2)N1 (stereo not given) | 99.8% | 9.11 µM | –
Fc1ccc2nc3[nH]c4ccccc4c3nc2c1 | 20.7% | > 100 µM (inactive) | –
Cn1c(/C=C/c2ccc([N+](=O)[O-])o2)nc2ccccc2c1=O | 47.5% | 51.4 µM | –
CC(=O)NC(CCS(C)(=O)=O)C(=O)Nc1ccc2c(c1)OCO2 (stereo not given) | – | > 100 µM (inactive) | inhibition ([1]; at 1.563 µM): -0.58%
CNC(=O)c1cc2c(ccc3ccccc32)oc1=N | 74.8% | 23.5 µM | –
O=C(O)c1cc2c(s1)-c1ccccc1CC2 | 47.3% | 50.5 µM | –
O=C1ON=C(c2ccccc2)/C1=C/c1ccc(OS(=O)(=O)c2ccccc2)cc1 | 11.6% | > 100 µM (inactive) | –
CCCCN=C(NNc1ccc(Br)cc1)C(=O)OCC | 97.9% | 5.51 µM | –
C=C(C)COc1ccc(-c2[nH]ncc2Oc2ccccc2OC)c(O)c1 | – | > 100 µM (inactive) | inhibition ([1]; at 1.563 µM): -1.35%
O=C(Nc1cc(C(F)(F)F)ccc1Cl)C(Sc1cccc[n+]1[O-])c1ccccc1 (stereo not given) | 99.8% | 6.31 µM | –
O=C1CCCC/C1=N\Nc1ccc(OCc2ccccc2)cc1 | 72.5% | 29.7 µM | –
Nc1[nH]c(=O)ncc1F | 84.8% | 17.5 µM | –
O=C(CC(=O)c1ccccc1O)c1ccc(F)cc1 | – | 30.1 µM | inhibition ([1]; at 25 µM): 37%
Cc1cccc(/C(N)=N/OC(=O)c2ccc(F)cc2)c1 | 23.4% | > 100 µM (inactive) | –
O=C1Cc2ccccc2C(=O)N1CCc1ccccc1 | – | > 100 µM (inactive) | inhibition ([1]; at 0.781 µM): 20.7%
O=C1NC(c2ccccn2)Nc2sc3c(c21)CCC3 (stereo not given) | – | > 100 µM (inactive) | inhibition ([1]; at 0.195 µM): 25.5%
Cc1nc2ccccc2c2nc3ccccc3n12 | 63.9% | 38.5 µM | –
Cc1cc(-c2n[nH]c(=S)n2/N=C/c2cc([N+](=O)[O-])ccc2Cl)n[nH]1 | – | > 100 µM (inactive) | inhibition ([1]; at 0.781 µM): -1.78%
CCCCCC/C(C)=C1/SC(=S)NC1=O | – | > 100 µM (inactive) | inhibition ([1]; at 12.5 µM): 15.5%

SMILES | inhibition ([1]; at 50 µM) | IC50 [2] | other results
CCCCCCCCCCCCCCCC[n+]1cccc(C(=O)N(CC)CC)c1 | 101% | 1.82 µM | –
c1ccc(-c2ccc(C(c3ccccc3)n3ccnc3)cc2)cc1 (stereo not given) | – | 0.793 µM | inhibition ([1]; at 3.125 µM): 94.4%
O=C(Nc1nc(-c2ccccn2)cs1)c1ccc(Br)s1 | – | 5.55 µM | inhibition ([1]; at 12.5 µM): 99.4%
CCCn1c(Nc2nc3ccccc3n2C)nc2ccccc21 | 97.9% | 45.1 µM | –
O=S(=O)(Cc1ccccc1)NCc1cccnc1 | – | > 100 µM (inactive) | inhibition ([1]; at 12.5 µM): 28.2%
O=S(=O)(Nc1ccc(-n2cccc2)cc1)c1ccc(Cl)cc1Cl | – | > 100 µM (inactive) | inhibition ([1]; at 0.391 µM): 29.9%
CC1(CCc2ccccc2)NC(=S)N(c2ccc(Cl)cc2)N1 (stereo not given) | 99.6% | 20.1 µM | –
COc1ccc(CN2CN(C(C)C)CSC2=S)cc1 | 26.3% | > 100 µM (inactive) | –
Cc1ccc(N=Cc2cccc(O)c2O)c(C)c1 | 99.4% | 16 µM | –
C/C(=N\NC(=O)c1ccc(CSc2cccc3cccnc23)cc1)C1CCCCC1 | 93.4% | 29.7 µM | –
Cc1ccc(-c2cc(-c3ccccc3Cl)[nH]n2)c(O)c1 | – | > 100 µM (inactive) | inhibition ([1]; at 0.781 µM): 16.4%
COc1ccc(-c2cc(=O)n(-c3nc4ccccc4[nH]3)[nH]2)cc1 | 98.2% | 14.6 µM | –
COC(=O)CSCc1nc2ccccc2[nH]c1=O | – | > 100 µM (inactive) | inhibition ([1]; at 1.563 µM): 20.2%
O=C(ONC1=NCCCCC1)c1ccc(Cl)cc1 | 99.8% | 7.02 µM | –
COc1ccc(C(=O)NC(=S)NNC(=O)c2cnccn2)cc1OC | – | 46.5 µM | inhibition ([1]; at 25 µM): 47.1%
O=C1C=C(c2ccccc2)C(=O)N1Nc1ccccc1 | 85.8% | 23.6 µM | –
CCC(=C(c1ccc(OC)cc1)c1ccc(OC)cc1)c1cn(CC(O)CN2CCN(C)CC2)c2ccccc12 (stereo not given) | 93.2% | 33.9 µM | –
Cc1ccccc1NC(=S)c1nc2ccccc2[nH]1 | 95.3% | 11.8 µM | –
Cc1oc(-c2ccc3c(c2)OCCO3)cc1C(=O)O | – | 47.8 µM | inhibition ([1]; at 25 µM): 48.3%
O=C(CSc1cccc[n+]1[O-])c1cc2ccccc2o1 | 99.2% | 3.68 µM | –
O=C1C(=C2CCCCC2)SC(=S)N1Cc1ccco1 | 11.2% | > 100 µM (inactive) | –
CCc1ccc2c(c1)C1(NN=C(c3ccc(C)cc3)S1)C(=O)N2 (stereo not given) | 98% | 21.3 µM | –

SMILES | inhibition ([1]; at 50 µM) | IC50 [2] | other results
Cc1[nH]n(-c2ccccc2)c(=O)c1/C=N/Nc1nncc(-c2ccccc2)n1 | 98.7% | 20.7 µM | –
COc1ccc(C(=O)NC(=S)NNC(=O)c2cnccn2)cc1 | 71.2% | 14.2 µM | –
Cc1cccnc1Nc1nc(-c2ccccn2)cs1 | 94.5% | 37.9 µM | –
COc1ccc(C(=O)N/N=C/c2sc3ccccc3c2O)cc1 | – | > 100 µM (inactive) | inhibition ([1]; at 0.781 µM): 17%
C=CCN1C(=O)/C(=C/c2cccs2)C(=O)NC1=S | 99.8% | 6.15 µM | –
Cc1ccc(N2NC(C)(c3cccs3)NC2=S)cc1 (stereo not given) | – | 12.1 µM | inhibition ([1]; at 25 µM): 94.1%
CCCCCCN1N=C(C)C(C(=O)c2ccc(Cl)cc2)C1=O (stereo not given) | 75% | 24.5 µM | –
CCCCS(=O)(=O)/C=C\C=C/S(=O)(=O)CCCC | – | > 100 µM (inactive) | inhibition ([1]; at 6.25 µM): 21.2%
CCCCSc1nc(C)c(C(C)=O)cc1C#N | – | > 100 µM (inactive) | inhibition ([1]; at 12.5 µM): 3.31%
c1ccc(-c2nc3nonc3nc2-c2ccccc2)cc1 | – | > 100 µM (inactive) | inhibition ([1]; at 1.563 µM): -1.92%
Clc1ccc(CSC(Cn2ccnc2)c2ccc(Cl)cc2Cl)cc1 (stereo not given) | 99.4% | 0.365 µM | –
Cc1ccnn2cc3c(=O)n(C)c(=O)n(C)c3c12 | 64.1% | 37.6 µM | –
CC(=O)n1cc(C(C[N+](=O)[O-])SCCN)c2ccccc21 (stereo not given) | 100% | 13.9 µM | –
CC(C)(C)N/N=C/c1cc(Cl)cc([N+](=O)[O-])c1O | 95.7% | 16.8 µM | –
Cc1ccc(C(=O)OCn2ncc(Cl)c(Cl)c2=O)cc1 | 85.2% | 36.4 µM | –
CC(C)CC(=O)/C(=C\c1ccc(Cl)cc1Cl)n1cncn1 | 100% | 11.7 µM | –
Clc1ccccc1N/N=C/c1ccc2c(c1)OCO2 | 98% | 24.4 µM | –
N#C/C(=N/O)c1nc(-c2ccc(F)cc2)cs1 | 78.8% | 15.9 µM | –
O=C1c2ccccc2C(=O)N1Cc1ccco1 | – | > 100 µM (inactive) | inhibition ([1]; at 25 µM): 8.88%
